Experimental data taken from the CheMixHub viscosity set.
“And” between values parts separate entries of the source, which are not always exact repeats. Identical values can stand only once. ± gives the uncertainty stated by the source.

Assay: xn = mol fraction of the nth substance listed

OC[C@@H](O)[C@@H](O)[C@H](O)[C@H](O)CO + O
viscosity, 101 kPa
Conditions	298.15 K	303.15 K	308.15 K	313.15 K	318.15 K	323.15 K
x1 = 0.002	–	0.837 ± 0.007 mPa·s	0.748 ± 0.006 mPa·s	0.674 ± 0.006 mPa·s	–	0.565 ± 0.005 mPa·s
x1 = 0.003588	0.9818 ± 0.0078 mPa·s	–	–	–	–	–
x1 = 0.004	–	0.872 ± 0.008 mPa·s	0.777 ± 0.007 mPa·s	0.705 ± 0.006 mPa·s	0.645 ± 0.006 mPa·s	0.587 ± 0.005 mPa·s
x1 = 0.005	–	0.909 ± 0.008 mPa·s	0.814 ± 0.007 mPa·s	0.732 ± 0.007 mPa·s	0.671 ± 0.006 mPa·s	0.61 ± 0.006 mPa·s
x1 = 0.007	–	0.941 ± 0.009 mPa·s	0.845 ± 0.008 mPa·s	0.757 ± 0.007 mPa·s	0.692 ± 0.006 mPa·s	0.626 ± 0.006 mPa·s
x1 = 0.007158	1.085 ± 0.0086 mPa·s	–	–	–	–	–
x1 = 0.009	–	0.983 ± 0.009 mPa·s	0.883 ± 0.008 mPa·s	0.788 ± 0.007 mPa·s	0.722 ± 0.007 mPa·s	0.653 ± 0.006 mPa·s
x1 = 0.01	–	1.069 ± 0.01 mPa·s	0.914 ± 0.009 mPa·s and 0.949 ± 0.009 mPa·s and 0.992 ± 0.01 mPa·s	0.821 ± 0.008 mPa·s and 0.886 ± 0.009 mPa·s	0.75 ± 0.007 mPa·s and 0.777 ± 0.008 mPa·s and 0.81 ± 0.008 mPa·s	0.673 ± 0.007 mPa·s and 0.697 ± 0.007 mPa·s and 0.731 ± 0.007 mPa·s
x1 = 0.01069	1.191 ± 0.0093 mPa·s	–	–	–	–	–
x1 = 0.01422	1.311 ± 0.01 mPa·s	–	–	–	–	–
x1 = 0.01769	1.442 ± 0.011 mPa·s	–	–	–	–	–
x1 = 0.018	–	1.217 ± 0.013 mPa·s	1.088 ± 0.011 mPa·s	0.966 ± 0.01 mPa·s	0.876 ± 0.009 mPa·s	0.786 ± 0.008 mPa·s
x1 = 0.02	–	1.17 ± 0.012 mPa·s	1.038 ± 0.011 mPa·s	0.928 ± 0.01 mPa·s	0.84 ± 0.009 mPa·s	0.756 ± 0.008 mPa·s

[Na+].[Na+].[O]=[Cr](=[O])([O-])[O-] + O
viscosity, 101 kPa
Conditions	x1 = 0.012	x1 = 0.02109	x1 = 0.027	x1 = 0.045	x1 = 0.069	x1 = 0.083
298.15 K	1.16 ± 0.02 mPa·s	1.38 ± 0.023 mPa·s	1.68 ± 0.02 mPa·s	2.88 ± 0.04 mPa·s	6.14 ± 0.09 mPa·s	10.03 ± 0.13 mPa·s
312.95 K	0.85 ± 0.01 mPa·s and 0.8523 ± 0.023 mPa·s	–	1.23 ± 0.02 mPa·s	1.98 ± 0.03 mPa·s	3.9 ± 0.05 mPa·s	5.94 ± 0.08 mPa·s

Cc1cccc(O)c1 + O=Cc1ccccc1
308.15 K, 101.33 kPa
Conditions	viscosity [mPa·s]
x2 = 0.103	5.863 ± 0.12
x2 = 0.308	3.972 ± 0.073
x2 = 0.398	3.45 ± 0.061
x2 = 0.545	2.597 ± 0.042
x2 = 0.602	2.3 ± 0.036
x2 = 0.704	1.844 ± 0.028
x2 = 0.903	1.37 ± 0.018

N + O=[N+]([O-])[O-].O=[N+]([O-])[O-].[Ca+2]
293.15 K, 101 kPa
Conditions	viscosity [mPa·s]
x2 = 0.01	0.17 ± 0.004
x2 = 0.02	0.238 ± 0.006
x2 = 0.042	0.355 ± 0.009
x2 = 0.087	0.783 ± 0.02

CCCCC(CC)COP(=O)(O)OCC(CC)CCCC (stereo not given) + O=[N+]([O-])c1ccccc1
Conditions	viscosity [mPa·s]
303.15 K, 100 kPa, x1 = 0.9387	17.75 ± 0.76

Nc1ccc(Br)cc1 + [Br-].[Br-].[Br-].[Sb+3]
323.15 K, 101 kPa
Conditions	viscosity [mPa·s]
x2 = 0.25	212.7 ± 5.8
x2 = 0.333	1215 ± 72
x2 = 0.4	12170 ± 360
x2 = 0.45	20000 ± 730
x2 = 0.48	20530 ± 760
x2 = 0.5	20730 ± 760
x2 = 0.52	19960 ± 720
x2 = 0.55	11640 ± 330
x2 = 0.6	4143 ± 110
x2 = 0.75	239.8 ± 7.5

Brc1ccc(Br)cc1 + c1ccccc1
viscosity [mPa·s], 101 kPa
Conditions	298.15 K	303.15 K	308.15 K	313.15 K
x1 = 0.2002	0.8249 ± 0.021	0.7715 ± 0.019	0.719 ± 0.018	0.6739 ± 0.017
x1 = 0.2312	0.8532 ± 0.021	0.8051 ± 0.02	0.7502 ± 0.019	0.7021 ± 0.018

CCCCCCCCCCCCN + c1ccccc1
303.15 K, 101 kPa
Conditions	viscosity [mPa·s]
x2 = 0.2072	2.122 ± 0.023
x2 = 0.4348	1.563 ± 0.017
x2 = 0.5228	1.375 ± 0.015
x2 = 0.6046	1.189 ± 0.013
x2 = 0.7998	0.8357 ± 0.0093

C[N+](=O)[O-] + c1ccccc1
Conditions	viscosity [mPa·s]
293.15 K, 101.33 kPa, x1 = 0.0919	0.627 ± 0.004
293.15 K, 101.33 kPa, x1 = 0.2238	0.606 ± 0.004
293.15 K, 101.33 kPa, x1 = 0.2978	0.597 ± 0.004
293.15 K, 101.33 kPa, x1 = 0.3994	0.587 ± 0.004
293.15 K, 101.33 kPa, x1 = 0.494	0.582 ± 0.004
293.15 K, 101.33 kPa, x1 = 0.7053	0.585 ± 0.004
293.15 K, 101.33 kPa, x1 = 0.8004	0.595 ± 0.004
293.15 K, 101.33 kPa, x1 = 0.9073	0.62 ± 0.004
298.15 K, 101 kPa, x1 = 0.1559	0.5732 ± 0.058
298.15 K, 101 kPa, x1 = 0.294	0.5584 ± 0.056
298.15 K, 101 kPa, x1 = 0.4165	0.5532 ± 0.056
298.15 K, 101 kPa, x1 = 0.5262	0.5534 ± 0.056
298.15 K, 101 kPa, x1 = 0.6247	0.5571 ± 0.056
298.15 K, 101 kPa, x1 = 0.7142	0.5652 ± 0.057
298.15 K, 101 kPa, x1 = 0.7953	0.577 ± 0.058
298.15 K, 101 kPa, x1 = 0.8693	0.5909 ± 0.06
298.15 K, 101 kPa, x1 = 0.9376	0.6098 ± 0.062
298.15 K, 101 kPa, x2 = 0.1005	0.6116 ± 0.0071
298.15 K, 101 kPa, x2 = 0.2025	0.5886 ± 0.007
298.15 K, 101 kPa, x2 = 0.3017	0.5772 ± 0.0069
298.15 K, 101 kPa, x2 = 0.4012	0.5724 ± 0.0069
298.15 K, 101 kPa, x2 = 0.5019	0.5707 ± 0.0069
298.15 K, 101 kPa, x2 = 0.6014	0.5751 ± 0.0069
298.15 K, 101 kPa, x2 = 0.7074	0.5817 ± 0.0069
298.15 K, 101 kPa, x2 = 0.7985	0.5905 ± 0.007
298.15 K, 101 kPa, x2 = 0.8947	0.6035 ± 0.0071
303.15 K, 101 kPa, x2 = 0.1005	0.5803 ± 0.0069
303.15 K, 101 kPa, x2 = 0.2025	0.5594 ± 0.0068
303.15 K, 101 kPa, x2 = 0.3017	0.5479 ± 0.0067
303.15 K, 101 kPa, x2 = 0.4012	0.5438 ± 0.0067
303.15 K, 101 kPa, x2 = 0.5019	0.5405 ± 0.0067
303.15 K, 101 kPa, x2 = 0.6014	0.5447 ± 0.0067
303.15 K, 101 kPa, x2 = 0.7074	0.5475 ± 0.0068
303.15 K, 101 kPa, x2 = 0.7985	0.556 ± 0.0068
303.15 K, 101 kPa, x2 = 0.8947	0.5662 ± 0.0069
308.15 K, 101 kPa, x2 = 0.1005	0.5518 ± 0.0068
308.15 K, 101 kPa, x2 = 0.2025	0.5299 ± 0.0067
308.15 K, 101 kPa, x2 = 0.3017	0.5201 ± 0.0066
308.15 K, 101 kPa, x2 = 0.4012	0.5142 ± 0.0066
308.15 K, 101 kPa, x2 = 0.5019	0.512 ± 0.0066
308.15 K, 101 kPa, x2 = 0.6014	0.5126 ± 0.0066
308.15 K, 101 kPa, x2 = 0.7074	0.5157 ± 0.0066
308.15 K, 101 kPa, x2 = 0.7985	0.5234 ± 0.0067
308.15 K, 101 kPa, x2 = 0.8947	0.5309 ± 0.0067
313.15 K, 101 kPa, x2 = 0.1005	0.5218 ± 0.0066
313.15 K, 101 kPa, x2 = 0.2025	0.5031 ± 0.0065
313.15 K, 101 kPa, x2 = 0.3017	0.4923 ± 0.0065
313.15 K, 101 kPa, x2 = 0.4012	0.4862 ± 0.0065
313.15 K, 101 kPa, x2 = 0.5019	0.4829 ± 0.0064
313.15 K, 101 kPa, x2 = 0.6014	0.4843 ± 0.0065
313.15 K, 101 kPa, x2 = 0.7074	0.4865 ± 0.0065
313.15 K, 101 kPa, x2 = 0.7985	0.4912 ± 0.0065
313.15 K, 101 kPa, x2 = 0.8947	0.4977 ± 0.0066

c1ccc(Cc2ccccc2)cc1 + c1ccccc1
302.85 K, 101 kPa
Conditions	viscosity [mPa·s]
x1 = 0.113	0.733 ± 0.019
x1 = 0.204	0.877 ± 0.023
x1 = 0.288	1.026 ± 0.027
x1 = 0.523	1.502 ± 0.04
x1 = 0.686	1.873 ± 0.049
x1 = 0.801	2.132 ± 0.056
x1 = 0.893	2.342 ± 0.062
